A word on the solubility: it is how much of the substance goes into solution per volume. A high value points to much dissolved substance.

The series in a line: physchem. An outline of the steps:
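Solubility at pH 7.4 determined by stepwise addition of 200 mM phosphate buffer in 100 μL increments to 3 mg peptide, mixing briefly each time, until no insoluble material remained, then measured by liquid chromatography.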

Structures are written as SMILES. Starred links: 1 amine or outer side, 2 acyl side, 3 side chain; linkers in the order of their positions; H or OH if unused. Positions of bridges follow the written chain, without caps; N, C: chain ends. Non-standard residues stand in square brackets, D forms with d. Residues, ends and D or L forms follow the SMILES beside them. Groups on a side chain read outwards from the residue. Chains are numbered I, II in the order given. *: point of attachment. C20 diacid = O=C(O)CCCCCCCCCCCCCCCCCCC(=O)*; C18 diacid = O=C(O)CCCCCCCCCCCCCCCCC(=O)*; γGlu = O=C(O)[C@H](CCC(=O)[*:2])N[*:1]; NMeY = CN[C@@H](Cc1ccc(O)cc1)C(=O)O; AEEA = NCCOCCOCC(=O)O; Aib = CC(C)(N)C(=O)O

Consider `CC[C@H](C)[C@H](NC(=O)[C@H](CO)NC(=O)[C@H](Cc1ccc(O)cc1)NC(=O)[C@H](CC(=O)O)NC(=O)[C@H](CO)NC(=O)[C@@H](NC(=O)[C@H](Cc1ccccc1)NC(=O)[C@@H](NC(=O)CNC(=O)[C@H](CCC(=O)O)NC(=O)C(C)(C)NC(=O)[C@H](Cc1ccc(O)cc1)NC)[C@@H](C)O)[C@@H](C)CC)C(=O)N[C@@H](C)C(=O)N[C@@H](CCCCNC(=O)CNC(=O)CNC(=O)CNC(=O)CNC(=O)CC[C@H](NC(=O)CCCCCCCCCCCCCCCCC(=O)O)C(=O)O)C(=O)N[C@@H](CC(=O)O)C(=O)N[C@@H](CCCNC(=N)N)C(=O)NC(C)(C)C(=O)N[C@@H](C)C(=O)N[C@@H](CCC(N)=O)C(=O)NC(C)(C)C(=O)N[C@@H](CC(=O)O)C(=O)N[C@@H](Cc1ccccc1)C(=O)N[C@H](C(=O)N[C@@H](CC(N)=O)C(=O)N[C@@H](Cc1c[nH]c2ccccc12)C(=O)N[C@@H](CC(C)C)C(=O)N[C@@H](CC(C)C)C(=O)N[C@@H](C)C(=O)N[C@@H](CCC(N)=O)C(=O)N[C@@H](CCCCN)C(=O)NCC(=O)O)C(C)C` [Compound 80] (H-[NMeY][Aib]EGTFISDYSIAK([Gly-Gly-Gly-Gly-γGlu-C18 diacid])DR[Aib]AQ[Aib]DFVNWLLAQKG-OH), for which the solubility (pH 7.4) was not below 15 mg/mL and the solubility (pH 7.4, aqueous buffer) is not below 30 mg/mL.
Take `CC[C@H](C)[C@H](NC(=O)[C@H](Cc1ccccc1)NC(=O)[C@@H](NC(=O)CNC(=O)[C@H](CCC(=O)O)NC(=O)C(C)(C)NC(=O)[C@H](Cc1ccc(O)cc1)NC)[C@@H](C)O)C(=O)N[C@@H](CO)C(=O)N[C@@H](CC(=O)O)C(=O)N[C@@H](Cc1ccc(O)cc1)C(=O)N[C@@H](CO)C(=O)N[C@H](C(=O)NC(C)(C)C(=O)N[C@@H](CC(C)C)C(=O)N[C@@H](CC(=O)O)C(=O)N[C@@H](CCCNC(=N)N)C(=O)NC(C)(C)C(=O)N[C@@H](CCCCNC(=O)COCCOCCNC(=O)COCCOCCNC(=O)CC[C@H](NC(=O)CC[C@H](NC(=O)CCCCCCCCCCCCCCCCC(=O)O)C(=O)O)C(=O)O)C(=O)N[C@@H](CCC(N)=O)C(=O)NC(C)(C)C(=O)N[C@@H](CC(N)=O)C(=O)N[C@@H](Cc1ccccc1)C(=O)N[C@H](C(=O)N[C@@H](CC(N)=O)C(=O)N[C@@H](Cc1c[nH]c2ccccc12)C(=O)N[C@@H](CC(C)C)C(=O)N[C@@H](CC(C)C)C(=O)N[C@@H](C)C(=O)N[C@@H](CCC(N)=O)C(=O)N[C@@H](CCCNC(=N)N)C(=O)NCC(=O)O)C(C)C)[C@@H](C)CC` [Compound 74] (H-[NMeY][Aib]EGTFISDYSI[Aib]LDR[Aib]K([AEEA-AEEA-γGlu-γGlu-C18 diacid])Q[Aib]NFVNWLLAQRG-OH): the solubility reads like this: (pH 7.4) not below 15 mg/mL; (pH 7.4, aqueous buffer) not below 30 mg/mL.
Under “pH 7.4, aqueous buffer”, `CC[C@H](C)[C@H](NC(=O)[C@H](CO)NC(=O)[C@H](Cc1ccc(O)cc1)NC(=O)[C@H](CC(=O)O)NC(=O)[C@H](CO)NC(=O)[C@@H](NC(=O)[C@H](Cc1ccccc1)NC(=O)[C@@H](NC(=O)CNC(=O)[C@H](CCC(=O)O)NC(=O)C(C)(C)NC(=O)[C@H](Cc1ccc(O)cc1)NC)[C@@H](C)O)[C@@H](C)CC)C(=O)N[C@@H](C)C(=O)N[C@@H](CC(C)C)C(=O)N[C@@H](CC(=O)O)C(=O)N[C@@H](CCCNC(=N)N)C(=O)N[C@@H](CCCCNC(=O)CNC(=O)CNC(=O)CNC(=O)CNC(=O)CNC(=O)CCCCCCCCCCCCCCCCC(=O)O)C(=O)N[C@@H](C)C(=O)N[C@@H](CCC(N)=O)C(=O)NC(C)(C)C(=O)N[C@@H](CC(N)=O)C(=O)N[C@@H](Cc1ccccc1)C(=O)N[C@H](C(=O)N[C@@H](CC(N)=O)C(=O)N[C@@H](Cc1c[nH]c2ccccc12)C(=O)N[C@@H](CC(C)C)C(=O)N[C@@H](CC(C)C)C(=O)N[C@@H](C)C(=O)N[C@@H](CCC(N)=O)C(=O)N[C@@H](CO)C(=O)N1CCC[C@H]1C(=O)NCC(=O)O)C(C)C` [Compound 290] showed a solubility not below 7.5 mg/mL.
With `CC[C@H](C)[C@H](NC(=O)[C@H](Cc1ccccc1)NC(=O)[C@@H](NC(=O)CNC(=O)[C@H](CCC(=O)O)NC(=O)C(C)(C)NC(=O)[C@@H](N)Cc1ccc(O)cc1)[C@@H](C)O)C(=O)N[C@@H](CO)C(=O)N[C@@H](CC(=O)O)C(=O)N[C@@H](Cc1ccc(O)cc1)C(=O)N[C@@H](CO)C(=O)N[C@H](C(=O)NC(C)(C)C(=O)N[C@@H](CC(C)C)C(=O)N[C@@H](CC(=O)O)C(=O)N[C@@H](CCCCN)C(=O)N[C@@H](C)C(=O)N[C@@H](CCCCNC(=O)COCCOCCNC(=O)COCCOCCNC(=O)CC[C@H](NC(=O)CCCCCCCCCCCCCCCCC(=O)O)C(=O)O)C(=O)N[C@@H](CCC(N)=O)C(=O)N[C@@H](C)C(=O)N[C@@H](CC(=O)O)C(=O)N[C@@H](Cc1ccccc1)C(=O)N[C@H](C(=O)N[C@@H](CC(N)=O)C(=O)N[C@@H](Cc1c[nH]c2ccccc12)C(=O)N[C@@H](CC(C)C)C(=O)N[C@@H](CC(C)C)C(=O)N[C@@H](C)C(=O)N[C@@H](CCC(N)=O)C(=O)N[C@@H](CCCNC(=N)N)C(=O)NCC(=O)O)C(C)C)[C@@H](C)CC` [Compound 171] (H-Y[Aib]EGTFISDYSI[Aib]LDKAK([AEEA-AEEA-γGlu-C18 diacid])QADFVNWLLAQRG-OH), the solubility by setting is: (pH 7.4) not below 15 mg/mL; (pH 7.4, aqueous buffer) not below 30 mg/mL.
`CC[C@H](C)[C@H](NC(=O)[C@H](CO)NC(=O)[C@H](Cc1ccc(O)cc1)NC(=O)[C@H](CC(=O)O)NC(=O)[C@H](CO)NC(=O)[C@@H](NC(=O)[C@H](Cc1ccccc1)NC(=O)[C@@H](NC(=O)CNC(=O)[C@H](CCC(=O)O)NC(=O)C(C)(C)NC(=O)[C@H](Cc1ccc(O)cc1)NC)[C@@H](C)O)[C@@H](C)CC)C(=O)N[C@@H](C)C(=O)N[C@@H](CCCCNC(=O)CNC(=O)CNC(=O)[C@@H]1CCCN1C(=O)[C@H](C)NC(=O)[C@@H]1CCCN1C(=O)[C@H](C)NC(=O)[C@@H]1CCCN1C(=O)CCCCCCCCCCCCCCCCC(=O)O)C(=O)N[C@@H](CC(=O)O)C(=O)N[C@@H](CCCNC(=N)N)C(=O)NC(C)(C)C(=O)N[C@@H](C)C(=O)N[C@@H](CCC(N)=O)C(=O)NC(C)(C)C(=O)N[C@@H](CC(=O)O)C(=O)N[C@@H](Cc1ccccc1)C(=O)N[C@H](C(=O)N[C@@H](CC(N)=O)C(=O)N[C@@H](Cc1c[nH]c2ccccc12)C(=O)N[C@@H](CC(C)C)C(=O)N[C@@H](CC(C)C)C(=O)N[C@@H](C)C(=O)N[C@@H](CCC(N)=O)C(=O)N[C@@H](CCCCN)C(=O)NCC(=O)O)C(C)C` [Compound 289] (I: H-[NMeY][Aib]EGTFISDYSIAKDR[Aib]AQ[Aib]DFVNWLLAQKG-OH / II: {C18 diacid}-PAPAPGG; amide I:14-II:C): for the setting “pH 7.4, aqueous buffer”, the solubility was not below 10 mg/mL.
Take `CC[C@H](C)[C@H](NC(=O)[C@H](CO)NC(=O)[C@H](Cc1ccc(O)cc1)NC(=O)[C@H](CC(=O)O)NC(=O)[C@H](CO)NC(=O)[C@@H](NC(=O)[C@H](Cc1ccccc1)NC(=O)[C@@H](NC(=O)CNC(=O)[C@H](CCC(=O)O)NC(=O)C(C)(C)NC(=O)[C@H](Cc1ccc(O)cc1)NC)[C@@H](C)O)[C@@H](C)CC)C(=O)N[C@@H](C)C(=O)N[C@@H](CC(C)C)C(=O)N[C@@H](CC(=O)O)C(=O)N[C@@H](CCCNC(=N)N)C(=O)NC(C)(C)C(=O)N[C@@H](CCCCNC(=O)COCCOCCNC(=O)COCCOCCNC(=O)CC[C@H](NC(=O)CC[C@H](NC(=O)CCCCCCCCCCCCCCCCCCC(=O)O)C(=O)O)C(=O)O)C(=O)N[C@@H](CCC(N)=O)C(=O)NC(C)(C)C(=O)N[C@@H](CC(N)=O)C(=O)N[C@@H](Cc1ccccc1)C(=O)N[C@H](C(=O)N[C@@H](CC(N)=O)C(=O)N[C@@H](Cc1c[nH]c2ccccc12)C(=O)N[C@@H](CC(C)C)C(=O)N[C@@H](CC(C)C)C(=O)N[C@@H](C)C(=O)N[C@@H](CCC(N)=O)C(=O)N[C@@H](CO)C(=O)N1CCC[C@H]1C(=O)N[C@@H](CO)C(=O)N[C@@H](CO)C(=O)NCC(=O)N[C@@H](C)C(=O)N1CCC[C@H]1C(=O)N1CCC[C@H]1C(=O)N1CCC[C@H]1C(=O)N[C@@H](CO)C(N)=O)C(C)C` [Compound 68] (H-[NMeY][Aib]EGTFISDYSIALDR[Aib]K([AEEA-AEEA-γGlu-γGlu-C20 diacid])Q[Aib]NFVNWLLAQSPSSGAPPPS-NH2): for the setting “pH 7.4, solubility in phosphate buffer at pH 7.4, 200 mM phosphate buffer pH 7.4”, the solubility is not below 15 mg/mL.
As to `CC[C@H](C)[C@H](NC(=O)[C@H](CO)NC(=O)[C@H](Cc1ccc(O)cc1)NC(=O)[C@H](CC(=O)O)NC(=O)[C@H](CO)NC(=O)[C@@H](NC(=O)[C@H](Cc1ccccc1)NC(=O)[C@@H](NC(=O)CNC(=O)[C@H](CCC(=O)O)NC(=O)C(C)(C)NC(=O)[C@H](Cc1ccc(O)cc1)NC)[C@@H](C)O)[C@@H](C)CC)C(=O)N[C@@H](C)C(=O)N[C@@H](CC(C)C)C(=O)N[C@@H](CC(=O)O)C(=O)N[C@@H](CCCNC(=N)N)C(=O)NC(C)(C)C(=O)N[C@@H](C)C(=O)N[C@@H](CCC(N)=O)C(=O)NC(C)(C)C(=O)N[C@@H](CC(=O)O)C(=O)N[C@@H](Cc1ccccc1)C(=O)N[C@H](C(=O)N[C@@H](CC(N)=O)C(=O)N[C@@H](Cc1c[nH]c2ccccc12)C(=O)N[C@@H](CC(C)C)C(=O)N[C@@H](CC(C)C)C(=O)N[C@@H](C)C(=O)N[C@@H](CCCCNC(=O)COCCOCCNC(=O)COCCOCCNC(=O)CC[C@H](NC(=O)CC[C@H](NC(=O)CCCCCCCCCCCCCCCCC(=O)O)C(=O)O)C(=O)O)C(=O)N[C@@H](CCCNC(=N)N)C(=O)NCC(=O)NCC(=O)NCC(=O)NCC(=O)N[C@@H](CO)C(N)=O)C(C)C` [Compound 57] (H-[NMeY][Aib]EGTFISDYSIALDR[Aib]AQ[Aib]DFVNWLLAK([AEEA-AEEA-γGlu-γGlu-C18 diacid])RGGGGS-NH2), the solubility (pH 7.4) is not below 15 mg/mL and the solubility (pH 7.4, aqueous buffer) was not below 30 mg/mL.

Source of the values: patent US20230143604A1, “QW DOSING OF GIP RECEPTOR AGONIST PEPTIDE COMPOUNDS AND USES THEREOF” (TAKEDA PHARMACEUTICAL COMPANY LIMITED, priority 2020, published 2023).
